We go through nine molecules from PMC8698302, “An Antibacterial Peptide with High Resistance to Trypsin Obtained by Substituting D-Amino Acids for Trypsin Cleavage Sites” (Antibiotics, 2021).

Converted amounts (≈) assume the structure as drawn. Read-outs that look alike come from different tables or passages of the source.

Holding throughout (assay): Antimicrobial susceptibility test of clinical isolated strains
Format in all cases: cell-based

In test [1] the test system is Escherichia coli QY. The settings on record: for Antimicrobial susceptibility test result (category): according to CLSI 2015 guidelines. Here is the method:
(§1) Table S1. Antimicrobial susceptibility test of clinical isolated strains used in this study (MIC, μg/mL).
(§2) 1Antimicrobial susceptibility test results were determined according to CLSI 2015 guidelines, where "R" stands for drug resistance,
(§3) "I" stands for intermediate, "S" stands for susceptible. […]

Test [2] deals with Escherichia coli S1N1. The settings on record: for Antimicrobial susceptibility test result (category): according to CLSI 2015 guidelines. The method, then:
as §1, §2, §3

Test [3] deals with Escherichia coli SN5. The settings on record: for Antimicrobial susceptibility test result (category): according to CLSI 2015 guidelines. Here is the method: as §1, §2, §3
The subject of test [4] is Escherichia coli w122. The settings on record: for Antimicrobial susceptibility test result (category): according to CLSI 2015 guidelines. The method, then:
as §1, §2, §3

For test [5], the system named is Escherichia coli w123. The settings on record: for Antimicrobial susceptibility test result (category): according to CLSI 2015 guidelines. The method, then:
as §1, §2, §3

In test [6] the test system is Methicillin-resistant Staphylococcus aureus HP. The note with it: for MIC: Staphylococcus aureus, antibiotic susceptibility, CLSI 2015 guidelines; for Antimicrobial susceptibility test result (category): according to CLSI 2015 guidelines. Here is the method:
as §1, §2, §3

Test [7] relates to Shigella flexneri QY1. The settings on record: for Antimicrobial susceptibility test result (category): according to CLSI 2015 guidelines. The method, then: as §1, §2, §3
The test system of test [8] is Escherichia coli w124. The note with it: for Antimicrobial susceptibility test result (category): according to CLSI 2015 guidelines.
Excerpt: as §1, §3

The subject of test [9] is Escherichia coli w136. The settings on record: for Antimicrobial susceptibility test result (category): according to CLSI 2015 guidelines.
Excerpt: as §1, §3

Setting [10] is: Escherichia coli, antibiotic susceptibility, CLSI 2015 guidelines, read-out: MIC.
Setting [11] is: Escherichia coli, S1N1, antibiotic susceptibility, CLSI 2015 guidelines, read-out: MIC.
Where [12] appears, read: Escherichia coli, SN5, antibiotic susceptibility, CLSI 2015 guidelines, read-out: MIC.
[13] abbreviates: Escherichia coli, W122, antibiotic susceptibility, CLSI 2015 guidelines, read-out: MIC.
Where [14] appears, read: Escherichia coli, W123, antibiotic susceptibility, CLSI 2015 guidelines, read-out: MIC.
Setting [15] is: Escherichia coli, W124, antibiotic susceptibility, CLSI 2015 guidelines, read-out: MIC.
[16] abbreviates: Escherichia coli, W136, antibiotic susceptibility, CLSI 2015 guidelines, read-out: MIC.
[17] abbreviates: antibiotic susceptibility, CLSI 2015 guidelines.

Consider `CC[C@H]1OC(=O)[C@H](C)[C@@H](O[C@H]2C[C@@](C)(OC)[C@@H](O)[C@H](C)O2)[C@H](C)[C@@H](O[C@@H]2O[C@H](C)C[C@H](N(C)C)[C@H]2O)[C@](C)(O)C[C@@H](C)CN(C)[C@H](C)[C@@H](O)[C@]1(C)O` [Azithromycin], for which the MIC – broadly, the lowest concentration that inhibits growth of the organism – in test [1] (setting [10]) is 8 µg/mL (≈ 10.7 µM); in [2] (setting [11]) it was 4 µg/mL (≈ 5.34 µM); in test [3] (setting [12]) it was 4 µg/mL (≈ 5.34 µM); in test [4] (setting [13]), 4 µg/mL (≈ 5.34 µM); in [5] (setting [14]), 4 µg/mL (≈ 5.34 µM); in [6], 1 µg/mL (≈ 1.34 µM). The MIC in [7] (Shigella flexneri, QY1) was found to be 64 µg/mL (≈ 85.4 µM); in test [8] (setting [15]), 4 µg/mL (≈ 5.34 µM); in test [9] (setting [16]), 2 µg/mL (≈ 2.67 µM). For the same molecule, the “Antimicrobial susceptibility test result (category)” value in test [1], in test [2], in [3], in [4], in test [5] and in test [6] was “S” each time. The “Antimicrobial susceptibility test result (category)” value is on record as “R” in test [7], “S” in test [8] and “S” in test [9].

Regarding `CO/N=C(\C(=O)N[C@@H]1C(=O)N2C(C(=O)O)=C(CSc3nc(=O)c(=O)[nH]n3C)CS[C@H]12)c1csc(N)n1` [Ceftriaxone], the MIC is 64 µg/mL (≈ 115 µM) in test [1] (setting [10]); 16 µg/mL (≈ 28.9 µM) in test [2] (setting [11]); 16 µg/mL (≈ 28.9 µM) in test [3] (setting [12]); 32 µg/mL (≈ 57.7 µM) in [4] (setting [13]); 32 µg/mL (≈ 57.7 µM) in test [5] (setting [14]); 4 µg/mL (≈ 7.21 µM) in test [7] (Shigella flexneri, QY1). The values for the MIC in [8] (setting [15]) and in test [9] (setting [16]) were 4 µg/mL (≈ 7.21 µM) and 0.06 µg/mL (≈ 0.108 µM), respectively. The “Antimicrobial susceptibility test result (category)” value in [1], in test [2], in test [3], in [4], in test [5] and in test [7] was “R” in each case. Moreover, the figures for the “Antimicrobial susceptibility test result (category)” value in test [8] and in [9] were “R” and “S”, respectively.

`CS(=O)(=O)c1ccc([C@@H](O)[C@@H](CF)NC(=O)C(Cl)Cl)cc1` [Florfenicol]: the MIC in [1] (setting [10]) worked out at 128 µg/mL (≈ 357 µM); in test [2] (setting [11]), 2 µg/mL (≈ 5.58 µM); in test [3] (setting [12]) it was 4 µg/mL (≈ 11.2 µM); in [4] (setting [13]) it was 128 µg/mL (≈ 357 µM); in [5] (setting [14]), 128 µg/mL (≈ 357 µM); in [7] (Shigella flexneri, QY1), 2 µg/mL (≈ 5.58 µM). Also, the MIC in test [8] (setting [15]) and in test [9] (setting [16]) was 128 µg/mL (≈ 357 µM) each time. The “Antimicrobial susceptibility test result (category)” value in [1] is “R”; in test [2] it was “S”; in test [3], “S”; in [4], “R”; in test [5], “R”; in test [7], “S”. Besides, the “Antimicrobial susceptibility test result (category)” value in test [8] and in [9] was “R” in each case.

For the molecule `CNC(C)C1CCC(N)C(OC2C(N)CC(N)C(OC3OCC(C)(O)C(NC)C3O)C2O)O1` (stereo not shown) [Gentamicin], the MIC in [1] (setting [10]) is more than 512 µg/mL; in [2] (setting [11]), less than 0.03 µg/mL; in test [3] (setting [12]), less than 0.03 µg/mL; in test [4] (setting [13]), 1 µg/mL (≈ 2.09 µM); in test [5] (setting [14]), 1 µg/mL (≈ 2.09 µM); in test [6], 16 µg/mL (≈ 33.5 µM). For the same molecule, the MIC in test [7] (Shigella flexneri, QY1) was determined as 1 µg/mL (≈ 2.09 µM); in [8] (setting [15]), 8 µg/mL (≈ 16.8 µM); in test [9] (setting [16]), 8 µg/mL (≈ 16.8 µM). Also, the “Antimicrobial susceptibility test result (category)” value in [1] is on record as “R”; in test [2], “S”; in test [3], “S”; in test [4], “S”; in test [5], “S”; in test [6] it was “R”. The “Antimicrobial susceptibility test result (category)” value in test [7] is “S”; in [8], “I”; in test [9], “I”.

As to `CO[C@H]1/C=C/O[C@@]2(C)Oc3c(C)c(O)c4c(O)c(c(/C=N/N5CCN(C)CC5)c(O)c4c3C2=O)NC(=O)/C(C)=C\C=C\[C@H](C)[C@H](O)[C@@H](C)[C@@H](O)[C@@H](C)[C@H](OC(C)=O)[C@@H]1C` [Rifampicin], the minimal inhibitory concentration (MIC) worked out at 4 µg/mL (≈ 4.86 µM) in test [1] (setting [10]); 2 µg/mL (≈ 2.43 µM) in test [2] (setting [11]); 1 µg/mL (≈ 1.22 µM) in test [3] (setting [12]); 4 µg/mL (≈ 4.86 µM) in [4] (setting [13]); 4 µg/mL (≈ 4.86 µM) in [5] (setting [14]); 8 µg/mL (≈ 9.72 µM) in test [6]. Moreover, the MIC in [7] (Shigella flexneri, QY1) is 2 µg/mL (≈ 2.43 µM); in test [8] (setting [15]), 4 µg/mL (≈ 4.86 µM); in test [9] (setting [16]) it was 64 µg/mL (≈ 77.8 µM). Besides, the “Antimicrobial susceptibility test result (category)” value in test [1] is given as “S”; in test [2], “S”; in test [3], “S”; in [4], “S”; in [5] it was “S”; in [6] it was “R”. The “Antimicrobial susceptibility test result (category)” value in [7] is on record as “S”; in test [8], “S”; in test [9], “R”.

On to `Cc1noc(NS(=O)(=O)c2ccc(N)cc2)c1C` [Sulfafurazole], for which the MIC in test [1] (Escherichia coli) was 512 µg/mL (≈ 1920 µM); in test [2] (Escherichia coli, S1N1), 512 µg/mL (≈ 1920 µM); in test [3] (Escherichia coli, SN5), more than 512 µg/mL; in [4] (Escherichia coli, W122) it was 512 µg/mL (≈ 1920 µM); in test [5] (Escherichia coli, W123), 512 µg/mL (≈ 1920 µM); in test [7] (Shigella flexneri, QY1), more than 512 µg/mL. In addition, the MIC in test [8] (Escherichia coli, W124) stood at 512 µg/mL (≈ 1920 µM); in test [9] (Escherichia coli, W136), 512 µg/mL (≈ 1920 µM). Moreover, the “Antimicrobial susceptibility test result (category)” value in [1], in test [2], in test [3], in [4], in test [5] and in test [7] was “R” throughout. Moreover, the “Antimicrobial susceptibility test result (category)” value in test [8] and in test [9] was “R” throughout.

`CN(C)[C@@H]1C(O)=C(C(N)=O)C(=O)[C@@]2(O)C(O)=C3C(=O)c4c(O)cccc4[C@@](C)(O)[C@H]3C[C@@H]12` [Tetracycline]: the “Antimicrobial susceptibility test result (category)” value in test [1], in [2], in [3], in test [4], in test [5] and in [6] was “R” throughout. For the same molecule, the “Antimicrobial susceptibility test result (category)” value in test [7], in [8] and in test [9] was “R” in each case. Moreover, the MIC was found to be 32 µg/mL (≈ 72 µM) in [2] (setting [11]); 64 µg/mL (≈ 144 µM) in [3] (setting [12]); 32 µg/mL (≈ 72 µM) in [4] (setting [13]); 32 µg/mL (≈ 72 µM) in test [5] (setting [14]); 32 µg/mL (≈ 72 µM) in test [6]; 32 µg/mL (≈ 72 µM) in [7] (Shigella flexneri, QY1).

In the case of `COc1cccc(OC)c1C(=O)N[C@@H]1C(=O)N2[C@@H]1SC(C)(C)[C@@H]2C(=O)O` [methicillin], the MIC came out at 128 µg/mL (≈ 336 µM) in test [2] (setting [11]); 64 µg/mL (≈ 168 µM) in test [3] (setting [12]); 64 µg/mL (≈ 168 µM) in [4] (setting [13]); 128 µg/mL (≈ 336 µM) in [5] (setting [14]); 128 µg/mL (≈ 336 µM) in test [6]; 32 µg/mL (≈ 84.1 µM) in test [7] (Shigella flexneri, QY1). The “Antimicrobial susceptibility test result (category)” value in test [2], in test [3], in test [4], in test [5], in test [6] and in test [7] was “R” throughout.

As for PolymixinB, the “Antimicrobial susceptibility test result (category)” value in test [1], in test [2], in [3], in test [4], in test [5] and in [7] was “S” each time. For the same molecule, the entries for the “Antimicrobial susceptibility test result (category)” value in test [8] and in test [9] were “S” and “R”, respectively. Further, the MIC in test [1] (setting [17]) was found to be 1 µg/mL; in test [2] (setting [17]), 0.5 µg/mL; in [3] (setting [17]), 0.5 µg/mL; in test [4] (setting [17]) it was 0.5 µg/mL; in test [5] (setting [17]), 0.5 µg/mL; in test [7] (setting [17]), 0.5 µg/mL. Moreover, the MIC was 0.5 µg/mL in test [8] (setting [17]) and 8 µg/mL in [9] (setting [17]).
